Measured values published in patent US12637428B2, “Isoquinoline derivatives as SIK2 inhibitors” (Cancer Research Technology Limited, priority 2019, dated 2026).

Legend:
Type in all cases: biochemical
[1] = target: T1, Src (Homo sapiens, UniProt P12931); test: Src kinase assay, IMAP fluorescence polarization; settings: 50 or 100 μM ATP, average
T1 construct: purchased Life Technologies
Outline: (§1)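 Dose-response over 0.00005-1 μM compound in 20 mM Tris pH 7.2 containing 4 mM MgCl2, 0.2% BSA and 2 mM DTT, with 50 or 100 μM ATP and 100 nM FAM-labelled peptide. Kinase 0.6-13 nM, 60 min at room temperature; IMAP FP readout, inhibition normalized to no-inhibitor and no-enzyme controls.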

[2] = target: T2, SIK1 (Homo sapiens, UniProt P57059); test: SIK1 kinase assay, IMAP fluorescence polarization; settings: 50 or 100 μM ATP, average
T2 construct: purchased Life Technologies
Outline: as §1

[3] = target: T3, SIK3 (Homo sapiens, UniProt Q9Y2K2); test: SIK3 kinase assay, IMAP fluorescence polarization; settings: 50 or 100 μM ATP, average
T3 construct: purchased Life Technologies
Outline: as §1

[4] = target: T4, Abl (Homo sapiens, UniProt P00519); test: Abl kinase assay, IMAP fluorescence polarization; settings: 50 or 100 μM ATP, average
T4 construct: purchased Life Technologies
Outline: as §1

[5] = target: T5, EPHA2 (Homo sapiens, UniProt P29317); test: EPHA2 kinase assay, IMAP fluorescence polarization; settings: 50 or 100 μM ATP, Tris pH 8.5, average
T5 construct: purchased Life Technologies

[6] = target: T6, SIK2 (Homo sapiens, UniProt Q9H0K1); test: SIK2 kinase assay, IMAP fluorescence polarization; settings: 50 or 100 μM ATP, average
T6 construct: purchased Life Technologies
Outline: as §1

T4 sequence (P00519 whole entry): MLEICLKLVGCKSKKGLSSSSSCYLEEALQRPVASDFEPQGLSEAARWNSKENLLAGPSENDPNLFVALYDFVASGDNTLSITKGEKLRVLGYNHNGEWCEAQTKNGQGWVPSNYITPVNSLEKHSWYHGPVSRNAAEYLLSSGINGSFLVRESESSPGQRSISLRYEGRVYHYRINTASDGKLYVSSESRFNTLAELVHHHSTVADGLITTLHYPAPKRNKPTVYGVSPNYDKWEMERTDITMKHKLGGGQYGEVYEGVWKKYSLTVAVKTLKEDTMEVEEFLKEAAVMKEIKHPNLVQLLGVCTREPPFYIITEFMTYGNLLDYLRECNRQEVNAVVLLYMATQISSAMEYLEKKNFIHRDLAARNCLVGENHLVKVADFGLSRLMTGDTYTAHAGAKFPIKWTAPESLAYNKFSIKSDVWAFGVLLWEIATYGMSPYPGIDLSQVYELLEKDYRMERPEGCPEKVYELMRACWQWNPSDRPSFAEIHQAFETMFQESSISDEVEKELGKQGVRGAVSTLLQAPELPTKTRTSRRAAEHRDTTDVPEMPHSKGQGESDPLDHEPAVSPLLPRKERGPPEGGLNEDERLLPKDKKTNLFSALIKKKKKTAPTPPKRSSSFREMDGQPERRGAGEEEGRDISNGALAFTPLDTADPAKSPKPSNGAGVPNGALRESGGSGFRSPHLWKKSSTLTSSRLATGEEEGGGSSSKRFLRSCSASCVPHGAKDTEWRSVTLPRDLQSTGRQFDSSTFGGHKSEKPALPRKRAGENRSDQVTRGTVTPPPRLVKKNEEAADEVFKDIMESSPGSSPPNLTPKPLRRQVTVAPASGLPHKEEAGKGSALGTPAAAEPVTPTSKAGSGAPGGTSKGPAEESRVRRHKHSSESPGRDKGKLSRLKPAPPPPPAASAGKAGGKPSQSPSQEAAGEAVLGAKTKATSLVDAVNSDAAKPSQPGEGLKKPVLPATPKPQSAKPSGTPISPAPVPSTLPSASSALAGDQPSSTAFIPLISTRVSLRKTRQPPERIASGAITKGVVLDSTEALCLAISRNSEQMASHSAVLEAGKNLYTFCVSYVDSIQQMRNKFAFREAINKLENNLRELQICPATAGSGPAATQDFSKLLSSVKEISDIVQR
T5 sequence (P29317 24-976): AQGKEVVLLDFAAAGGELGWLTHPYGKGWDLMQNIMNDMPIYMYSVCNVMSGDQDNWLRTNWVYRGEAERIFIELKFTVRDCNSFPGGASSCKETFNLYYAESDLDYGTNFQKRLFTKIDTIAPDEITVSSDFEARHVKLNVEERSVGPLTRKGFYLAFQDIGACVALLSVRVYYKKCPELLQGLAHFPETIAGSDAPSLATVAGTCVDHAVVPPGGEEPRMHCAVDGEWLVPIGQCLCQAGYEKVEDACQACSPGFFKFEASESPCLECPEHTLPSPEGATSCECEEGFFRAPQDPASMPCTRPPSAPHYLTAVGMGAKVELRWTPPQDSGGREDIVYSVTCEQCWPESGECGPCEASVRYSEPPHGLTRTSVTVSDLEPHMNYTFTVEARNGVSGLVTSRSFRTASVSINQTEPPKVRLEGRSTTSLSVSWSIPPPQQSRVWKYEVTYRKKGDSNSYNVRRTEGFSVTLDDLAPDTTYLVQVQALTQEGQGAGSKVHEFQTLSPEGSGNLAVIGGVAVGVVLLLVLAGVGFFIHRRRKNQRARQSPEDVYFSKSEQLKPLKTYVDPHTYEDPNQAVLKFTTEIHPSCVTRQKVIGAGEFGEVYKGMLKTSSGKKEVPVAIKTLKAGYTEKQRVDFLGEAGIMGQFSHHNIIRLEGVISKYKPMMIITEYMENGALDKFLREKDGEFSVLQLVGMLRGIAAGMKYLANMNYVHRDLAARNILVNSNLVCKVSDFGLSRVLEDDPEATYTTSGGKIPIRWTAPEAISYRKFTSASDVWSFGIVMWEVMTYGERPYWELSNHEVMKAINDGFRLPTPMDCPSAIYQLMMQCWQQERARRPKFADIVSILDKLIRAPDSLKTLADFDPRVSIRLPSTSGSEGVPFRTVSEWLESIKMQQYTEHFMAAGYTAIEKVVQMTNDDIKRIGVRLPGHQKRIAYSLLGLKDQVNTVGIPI
T2 sequence (P57059 whole entry): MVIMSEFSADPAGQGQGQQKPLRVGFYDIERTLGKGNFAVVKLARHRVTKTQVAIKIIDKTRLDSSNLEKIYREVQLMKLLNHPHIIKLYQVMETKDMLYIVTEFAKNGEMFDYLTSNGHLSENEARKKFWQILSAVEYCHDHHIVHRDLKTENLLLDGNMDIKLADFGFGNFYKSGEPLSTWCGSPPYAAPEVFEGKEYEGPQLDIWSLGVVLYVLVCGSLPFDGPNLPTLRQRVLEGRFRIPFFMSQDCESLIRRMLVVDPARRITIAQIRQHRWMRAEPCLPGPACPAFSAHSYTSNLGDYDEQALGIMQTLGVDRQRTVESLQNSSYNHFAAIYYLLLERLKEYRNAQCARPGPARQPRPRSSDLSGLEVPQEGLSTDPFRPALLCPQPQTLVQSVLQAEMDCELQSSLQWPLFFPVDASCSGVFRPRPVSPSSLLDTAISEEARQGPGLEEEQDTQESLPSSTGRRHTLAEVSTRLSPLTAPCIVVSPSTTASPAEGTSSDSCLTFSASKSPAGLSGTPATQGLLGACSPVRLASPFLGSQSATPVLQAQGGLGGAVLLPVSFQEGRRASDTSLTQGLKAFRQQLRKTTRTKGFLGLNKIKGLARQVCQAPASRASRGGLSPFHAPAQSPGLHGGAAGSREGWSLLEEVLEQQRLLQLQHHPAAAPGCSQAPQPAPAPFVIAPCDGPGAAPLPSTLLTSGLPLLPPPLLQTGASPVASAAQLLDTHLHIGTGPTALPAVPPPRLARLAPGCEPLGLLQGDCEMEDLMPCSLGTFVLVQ
T6 sequence (Q9H0K1 whole entry): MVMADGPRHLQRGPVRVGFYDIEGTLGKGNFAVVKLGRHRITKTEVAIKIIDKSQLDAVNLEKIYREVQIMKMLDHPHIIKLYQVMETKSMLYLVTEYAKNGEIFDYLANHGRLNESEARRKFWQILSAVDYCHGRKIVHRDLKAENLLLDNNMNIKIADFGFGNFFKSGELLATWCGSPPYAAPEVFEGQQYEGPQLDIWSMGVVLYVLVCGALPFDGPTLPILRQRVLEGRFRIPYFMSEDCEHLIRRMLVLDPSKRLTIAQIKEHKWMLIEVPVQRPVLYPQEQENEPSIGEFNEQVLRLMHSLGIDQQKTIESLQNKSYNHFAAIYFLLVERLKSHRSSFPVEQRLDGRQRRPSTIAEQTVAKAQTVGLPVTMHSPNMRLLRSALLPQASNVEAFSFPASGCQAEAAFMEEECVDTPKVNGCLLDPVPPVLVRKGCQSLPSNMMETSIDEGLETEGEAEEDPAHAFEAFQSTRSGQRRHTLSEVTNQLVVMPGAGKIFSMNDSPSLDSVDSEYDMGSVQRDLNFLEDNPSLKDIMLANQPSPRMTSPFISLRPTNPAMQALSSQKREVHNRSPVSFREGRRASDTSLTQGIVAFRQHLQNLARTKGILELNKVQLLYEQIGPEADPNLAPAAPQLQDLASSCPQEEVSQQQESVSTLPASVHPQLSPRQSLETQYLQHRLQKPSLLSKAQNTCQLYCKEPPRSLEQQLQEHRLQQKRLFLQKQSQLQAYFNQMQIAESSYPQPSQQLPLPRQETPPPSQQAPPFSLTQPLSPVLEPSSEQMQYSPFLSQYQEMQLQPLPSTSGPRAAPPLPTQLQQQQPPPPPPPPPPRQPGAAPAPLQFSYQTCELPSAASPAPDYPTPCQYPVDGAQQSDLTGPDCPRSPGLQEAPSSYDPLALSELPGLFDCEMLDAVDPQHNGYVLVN
T3 sequence (Q9Y2K2 whole entry): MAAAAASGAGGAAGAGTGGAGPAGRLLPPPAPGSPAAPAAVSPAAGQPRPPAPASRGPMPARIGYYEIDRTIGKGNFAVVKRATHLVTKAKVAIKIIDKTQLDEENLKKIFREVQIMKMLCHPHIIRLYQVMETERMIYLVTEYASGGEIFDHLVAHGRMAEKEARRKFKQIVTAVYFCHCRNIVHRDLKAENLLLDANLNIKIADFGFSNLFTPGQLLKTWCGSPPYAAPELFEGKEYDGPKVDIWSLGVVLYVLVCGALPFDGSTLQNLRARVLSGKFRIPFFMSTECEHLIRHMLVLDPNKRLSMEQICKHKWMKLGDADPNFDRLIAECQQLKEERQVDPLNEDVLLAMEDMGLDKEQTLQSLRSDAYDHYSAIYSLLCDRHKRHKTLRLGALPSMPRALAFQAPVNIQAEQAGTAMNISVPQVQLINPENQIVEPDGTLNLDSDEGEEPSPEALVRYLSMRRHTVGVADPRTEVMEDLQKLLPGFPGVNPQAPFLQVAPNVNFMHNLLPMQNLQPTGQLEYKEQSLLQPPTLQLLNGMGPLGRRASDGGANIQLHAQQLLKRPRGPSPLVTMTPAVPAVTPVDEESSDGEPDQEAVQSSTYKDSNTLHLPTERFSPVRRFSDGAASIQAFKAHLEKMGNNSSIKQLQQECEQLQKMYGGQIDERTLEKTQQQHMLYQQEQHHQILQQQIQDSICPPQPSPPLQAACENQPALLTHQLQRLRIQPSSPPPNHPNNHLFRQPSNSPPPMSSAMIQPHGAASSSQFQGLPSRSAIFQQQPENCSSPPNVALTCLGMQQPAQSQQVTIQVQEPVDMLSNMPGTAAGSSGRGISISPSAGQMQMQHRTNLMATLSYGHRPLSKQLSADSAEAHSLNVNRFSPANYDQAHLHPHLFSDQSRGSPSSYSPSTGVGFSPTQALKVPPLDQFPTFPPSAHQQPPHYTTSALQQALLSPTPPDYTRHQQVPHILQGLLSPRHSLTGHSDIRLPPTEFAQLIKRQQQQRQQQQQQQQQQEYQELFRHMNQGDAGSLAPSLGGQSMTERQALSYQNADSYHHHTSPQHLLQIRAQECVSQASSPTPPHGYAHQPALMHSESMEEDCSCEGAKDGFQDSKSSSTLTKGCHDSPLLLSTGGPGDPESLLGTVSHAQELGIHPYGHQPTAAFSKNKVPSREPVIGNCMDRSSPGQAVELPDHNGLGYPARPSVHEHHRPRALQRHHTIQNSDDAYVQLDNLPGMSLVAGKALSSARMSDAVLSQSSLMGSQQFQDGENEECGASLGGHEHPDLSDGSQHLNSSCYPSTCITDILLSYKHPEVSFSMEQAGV

Ki [1] | Ki [2] | Ki [3] | Ki [4] | Ki [5] | Ki [6] | SMILES
103 nM | 0.418 nM | 0.883 nM | 16.1 nM | 195 nM | 0.0466 nM | Cc1cccc(F)c1-c1cc(NC2CCN(C)CC2)c2cc(N)ncc2c1 [Example 54, 7-(2-Fluoro-6-methyl-phenyl)-N5-(1-methyl-4-piperidyl)isoquinoline-3,5-diamine]
57 nM | 0.954 nM | 3.85 nM | 9.11 nM | 183 nM | 0.22 nM | Cc1cccc(F)c1-c1cc(NC[C@@H]2CCCN2C)c2cc(N)ncc2c1 [Example 55, 7-(2-fluoro-6-methyl-phenyl)-N5-[[(2S)-1-methylpyrrolidin-2-yl]methyl] isoquinoline-3,5-diamine]
229 nM | 1.06 nM | 6.3 nM | 48 nM | 238 nM | 0.578 nM | Cc1cccc(F)c1-c1cc(NC[C@H]2CCCCN2C)c2cc(N)ncc2c1 [Example 56, 7-(2-fluoro-6-methyl-phenyl)-N5-[[(2R)-1-methyl-2-piperidyl]methyl] isoquinoline-3,5-diamine]
798 nM | 7.97 nM | 42.4 nM | 223 nM | > 1000 nM | 1.46 nM | Cc1cccc(F)c1-c1cc(N2CCC[C@H](CN(C)C)C2)c2cc(N)ncc2c1 [Example 60, 5-[(3R)-3-[(dimethylamino)methyl]-1-piperidyl]-7-(2-fluoro-6-methyl-phenyl)isoquinolin-3-amine]
313 nM | 0.492 nM | 2.94 nM | 209 nM | 199 nM | 0.133 nM | Cc1cccc(Cl)c1-c1cc(NC2CCN(C)CC2)c2cc(N)ncc2c1 [Example 62, 7-(2-Chloro-6-methyl-phenyl)-N5-(1-methyl-4-piperidyl)isoquinoline-3,5-diamine]
285 nM | 3.73 nM | 4.57 nM | 35.9 nM | 264 nM | 0.716 nM | Cc1cccc(F)c1-c1cc(NC2CN(C)C2)c2ccncc2c1 [Example 65, 7-(2-Fluoro-6-methyl-phenyl)-N-(1-methylazetidin-3-yl)isoquinolin-5-amine]
249 nM | 10.4 nM | 27.2 nM | 92.9 nM | 50.4 nM | 11.8 nM | Cc1cccc(Cl)c1-c1cc(NC2CN(C)C2)c2ccncc2c1 [Example 67, 7-(2-chloro-6-methyl-phenyl)-N-(1-methylazetidin-3-yl)isoquinolin-5-amine]
160 nM | 0.532 nM | 0.993 nM | 17.8 nM | 323 nM | 0.1 nM | Cc1cccc(F)c1-c1cc(NC2CN(C)C2)c2cc(N)ncc2c1 [Example 68, 7-(2-Fluoro-6-methyl-phenyl)-N5-(1-methylazetidin-3-yl)isoquinoline-3,5-diamine]
35.8 nM | 0.3 nM | 0.986 nM | 5.14 nM | > 1000 nM | 0.0972 nM | Cc1cccc(F)c1-c1cc(N[C@@H]2CCN(C)C2)c2cc(N)ncc2c1 [Example 69, 7-(2-fluoro-6-methyl-phenyl)-N5-[(3R)-1-methylpyrrolidin-3-yl]isoquinoline-3,5-diamine]

Continued, compound first:

SMILES | Ki [1] | Ki [2] | Ki [3] | Ki [4] | Ki [5] | Ki [6]
Cc1cccc(F)c1-c1cc(C(=O)NC2CCNC2)c2cc(N)ncc2c1 (stereo not drawn) [Example 53, 3-amino-7-(2-fluoro-6-methyl-phenyl)-N-pyrrolidin-3-yl-isoquinoline-5-carboxamide] | > 100000 nM | 12900 nM | > 100000 nM | 5530 nM | > 100000 nM | 2770 nM
Cc1cccc(F)c1-c1cc(N2CCC(N(C)C)CC2)c2cc(N)ncc2c1 [Example 57, 5-[4-(dimethylamino)-1-piperidyl]-7-(2-fluoro-6-methyl-phenyl)isoquinolin-3-amine] | 303 nM | 1.13 nM | 2.45 nM | 59.9 nM | 150 nM | 0.147 nM
Cc1cccc(F)c1-c1cc(N2CC[C@@H](N(C)C)C2)c2cc(N)ncc2c1 [Example 58, 5-[(3R)-3-(dimethylamino)pyrrolidin-1-yl]-7-(2-fluoro-6-methyl-phenyl)isoquinolin-3-amine] | 1400 nM | 5.37 nM | 8.64 nM | 107 nM | > 1000 nM | 1.11 nM
Cc1cccc(F)c1-c1cc(N2CC[C@H](N(C)C)C2)c2cc(N)ncc2c1 [Example 59, 5-[(3S)-3-(dimethylamino)pyrrolidin-1-yl]-7-(2-fluoro-6-methyl-phenyl)isoquinolin-3-amine] | 2170 nM | 15.3 nM | 27.4 nM | 211 nM | > 1000 nM | 2.87 nM
Cc1cccc(F)c1-c1cc(N2CCC[C@@H](CN(C)C)C2)c2cc(N)ncc2c1 [Example 61, 5-[(3S)-3-[(dimethylamino)methyl]-1-piperidyl]-7-(2-fluoro-6-methyl-phenyl)isoquinolin-3-amine] | 226 nM | 3.23 nM | 39.5 nM | 27.7 nM | 199 nM | 1.08 nM
Cc1cccc(Cl)c1-c1cc(NC2CN(C)C2)c2cc(N)ncc2c1 [Example 63, 7-(2-chloro-6-methyl-phenyl)-N5-(1-methylazetidin-3-yl)isoquinoline-3,5-diamine] | 151 nM | 2.01 nM | 10.1 nM | 104 nM | 220 nM | 0.998 nM
Cc1cccc(Cl)c1-c1cc(NC2CCN(C)CC2)c2ccncc2c1 [Example 66, 7-(2-chloro-6-methyl-phenyl)-N-(1-methyl-4-piperidyl)isoquinolin-5-amine] | 105 nM | 0.528 nM | 1.15 nM | 58.7 nM | 54.9 nM | 0.646 nM
Cc1cccc(F)c1-c1cc(N[C@H]2CCN(C)C2)c2cc(N)ncc2c1 [Example 70, 7-(2-fluoro-6-methyl-phenyl)-N5-[(3S)-1-methylpyrrolidin-3-yl]isoquinoline-3,5-diamine] | 84.8 nM | 0.439 nM | 4.14 nM | 9.94 nM | 74.6 nM | 0.111 nM
Cc1cccc(F)c1-c1cc(NCC2CCN(C)CC2)c2cc(N)ncc2c1 [Example 71, 7-(2-fluoro-6-methyl-phenyl)-N5-[(1-methyl-4-piperidyl)methyl] isoquinoline-3,5-diamine] | 149 nM | 1.17 nM | 5.67 nM | 15.6 nM | > 1000 nM | 0.486 nM
Cc1cccc(F)c1-c1cc(NCC2CN(C)C2)c2cc(N)ncc2c1 [Example 72, 7-(2-fluoro-6-methyl-phenyl)-N5-[(1-methylazetidin-3-yl)methyl] isoquinoline-3,5-diamine] | 40.1 nM | 0.627 nM | 1.29 nM | 1.83 nM | 153 nM | 0.117 nM
Cc1cccc(F)c1-c1cc(NC[C@H]2CCCN2C)c2cc(N)ncc2c1 [Example 73, 7-(2-fluoro-6-methyl-phenyl)-N5-[[(2R)-1-methylpyrrolidin-2-yl]methyl] isoquinoline-3,5-diamine] | 98.1 nM | 0.498 nM | 0.528 nM | 6.45 nM | 251 nM | 0.0693 nM
